Test results: PMC6018746, “Activation of the p53-MDM4 regulatory axis defines the anti-tumour response to PRMT5 inhibition through its role in regulating cellular splicing” (Scientific Reports, 2018)
Like-named read-outs stand apart in the source and are kept apart here.

Tested on: panel of hematologic and solid cancer lines
Assay: 6-day in vitro growth/death assay
Format: cell-based, human
Conditions: read-out: gIC50
Procedure: To further develop these molecules and to guide clinical strategy, it was necessary to understand sensitivity in preclinical models by assessing the anti-tumour activity of the PRMT5 inhibitors in various cancers.
Cell lines were obtained from ATCC or DSMZ and were grown in recommended medium, which was most frequently RPMI-1640 containing 10% FBS. Cell line proliferation assays, Western blotting, qRT-PCR, and cell cycle analyses were performed as described previously[27],[28]. Antibody and gene expression reagents are as described in Supplementary Table 16. All studies were conducted in accordance with the GSK Policy on the Care, Welfare and Treatment of Laboratory Animals and were reviewed by the Institutional Animal Care and Use Committee either at GSK or by the ethical review process at the institution where the work was performed. Detailed descriptions of all methods can be found in the Supplemental Materials.

O=C(NC[C@H](O)CN1CCc2ccccc2C1)c1ccnc(NC2CCC2)c1 [GSK3203591]
IC50 (Homo sapiens, NCI-H747, NCIH747): 1.5 µM
IC50 (Homo sapiens, NCI-H1048, NCI-H1048): 0.252 µM
IC50 (Homo sapiens, NCI-H1299, NCI-H1299): 0.419 µM
IC50 (Homo sapiens, NCI-H1437, NCI-H1437): 0.467 µM
IC50 (Homo sapiens, NCI-H1563, NCI-H1563): > 29.3 µM
IC50 (Homo sapiens, NCI-H1581, NCI-H1581): 12.8 µM
IC50 (Homo sapiens, NCI-H1648, NCI-H1648): 20.7 µM
IC50 (Homo sapiens, NCI-H1650, NCI-H1650): 8.77 µM
IC50 (Homo sapiens, NCI-H1651, NCI-H1651): 15.3 µM
IC50 (Homo sapiens, NCI-H1915, NCI-H1915): 1.13 µM
IC50 (Homo sapiens, NCI-H1975, NCI-H1975): 0.289 µM
IC50 (Homo sapiens, NCI-H2087, NCI-H2087): 0.51 µM
IC50 (Homo sapiens, NCI-H2170, NCI-H2170): 6.39 µM
IC50 (Homo sapiens, NKM-1): 0.0076 µM
IC50 (Homo sapiens, NOMO-1, NOMO-1): 7.32 µM
IC50 (Homo sapiens, NU-DHL-1, NU-DHL-1): 0.101 µM
IC50 (Homo sapiens, NU-DUL-1, NU-DUL-1): 0.548 µM
IC50 (Homo sapiens, OCI-AML-3, OCI-AML3): 0.373 µM
IC50 (Homo sapiens, OCI-AML-5, OCI-AML5): 0.297 µM
IC50 (Homo sapiens, OCI-LY19, OCI-LY-19): 0.101 µM
IC50 (Homo sapiens, OCI-Ly1, OCILY-1): > 29.3 µM
IC50 (Homo sapiens, OCI-Ly3, OCI-LY3): 1.51 µM
IC50 (Homo sapiens, OCI-Ly10, OCILY-10): 4.47 µM
IC50 (Homo sapiens, OCI-Ly18, OCI-LY-18): 0.0308 µM
IC50 (Homo sapiens, OCI-M1, OCI-M1): 0.13 µM
IC50 (Homo sapiens, OPM-2, OPM-2): 0.0402 µM
IC50 (Homo sapiens, PANC-1, PANC-1): 0.939 µM
IC50 (Homo sapiens, PANC-03-27, PANC-03.27): 2.48 µM
IC50 (Homo sapiens, PANC-08-13, PANC-08.13): 0.136 µM
IC50 (Homo sapiens, PC-3, PC-3): 1.89 µM
IC50 (Homo sapiens, PC-9, PC9): 0.095 µM
IC50 (Homo sapiens, PER-403, PER-403): 0.0292 µM
IC50 (Homo sapiens, PER-624): 0.526 µM
IC50 (Homo sapiens, PER-704): 0.374 µM
IC50 (Homo sapiens, PL-21, PL-21): 0.329 µM
IC50 (Homo sapiens, PSN1, PSN-1): 0.504 µM
IC50 (Homo sapiens, PaTu 8988t, PA-TU-8988T): > 29.3 µM
IC50 (Homo sapiens, Panc 02.03, PANC-02.03): 1.37 µM
IC50 (Homo sapiens, Panc 04.03, PANC-04.03): 0.622 µM
IC50 (Homo sapiens, Panc1005, PANC-10.05): 2.08 µM
IC50 (Homo sapiens, Pfeiffer): 0.352 µM
IC50 (Homo sapiens, RCK8, RCK8): 2.11 µM
IC50 (Homo sapiens, RIVA): 0.0684 µM
IC50 (Homo sapiens, RKO): 2.21 µM
IC50 (Homo sapiens, RL): 1.43 µM
IC50 (Homo sapiens, RPMI-6666, RPMI-6666): 2.71 µM
IC50 (Homo sapiens, RPMI-8226, RPMI-8226): 0.135 µM
IC50 (Homo sapiens, RPMI-8226-DOX): 0.204 µM
IC50 (Homo sapiens, RPMI-8226-LR5): 0.303 µM
IC50 (Homo sapiens, RPMI-8226-MR20): 0.384 µM
IC50 (Homo sapiens, RT-112, RT-112): 1.11 µM
IC50 (Homo sapiens, RVH-421, RVH-421): > 29.3 µM
IC50 (Homo sapiens, Rec1, REC-1): 1.99 µM
IC50 (Homo sapiens, SC-1, SC-1): 0.117 µM
IC50 (Homo sapiens, SCaBER): 0.255 µM
IC50 (Homo sapiens, SF-126, SF-126): 0.386 µM
IC50 (Homo sapiens, SF-295, SF295): 9.84 µM
IC50 (Homo sapiens, SF-539, SF539): 0.075 µM
IC50 (Homo sapiens, SH-4, SH-4): 2.56 µM
IC50 (Homo sapiens, SHI-1): 0.358 µM
IC50 (Homo sapiens, SIG-M5, SIG-M5): 0.316 µM
IC50 (Homo sapiens, SK-BR-3, SK-BR-3): 0.132 µM
IC50 (Homo sapiens, SK-CO-1, SK-CO-1): 0.473 µM
IC50 (Homo sapiens, SK-LU-1, SK-LU-1): 0.881 µM
IC50 (Homo sapiens, SK-MEL-5, SK-MEL-5): 0.111 µM
IC50 (Homo sapiens, SK-MES-1, SK-MES-1): 18.5 µM
IC50 (Homo sapiens, SK-MM-2, SK-MM-2): 1.26 µM
IC50 (Homo sapiens, SK-NEP-1, SK-NEP-1): 2.24 µM
IC50 (Homo sapiens, SK-UT-1, SK-UT-1): 0.393 µM
IC50 (Homo sapiens, SKM-1, SKM-1): 0.11 µM
IC50 (Homo sapiens, SKNO-1, SKNO-1): 0.563 µM
IC50 (Homo sapiens, SNU-16, SNU16): 0.175 µM
IC50 (Homo sapiens, SNU-C1, SNUC1): 1.52 µM
IC50 (Homo sapiens, SR-786, SR-786): 0.0328 µM
IC50 (Homo sapiens, SU-DHL10, SU-DHL-10): 0.495 µM
IC50 (Homo sapiens, SU-DHL-2, SU-DHL-2): 0.086 µM
IC50 (Homo sapiens, SU-DHL-4, SU-DHL-4): 0.571 µM
IC50 (Homo sapiens, SU-DHL-5, SU-DHL-5): 0.132 µM
IC50 (Homo sapiens, SU-DHL-6, SU-DHL-6): 0.0129 µM
IC50 (Homo sapiens, SU-DHL-8, SU-DHL-8): 1.22 µM
IC50 (Homo sapiens, SU-DHL-16, SU-DHL-16): 0.124 µM
IC50 (Homo sapiens, SW48, SW48): 9.34 µM
IC50 (Homo sapiens, SW480, SW480): 2.26 µM
IC50 (Homo sapiens, SW780, SW-780): 0.451 µM
IC50 (Homo sapiens, SW837, SW837): 9.15 µM
IC50 (Homo sapiens, SW900, SW900): 7.97 µM
IC50 (Homo sapiens, SW982, SW982): 0.369 µM
IC50 (Homo sapiens, SW1271, SW1271): 3.18 µM
IC50 (Homo sapiens, SW1417, SW-1417): 19.6 µM
IC50 (Homo sapiens, SW1573, SW1573): 11.4 µM
IC50 (Homo sapiens, SW1710, SW-1710): 10 µM
IC50 (Homo sapiens, SW1990, SW-1990): 0.125 µM
IC50 (Homo sapiens, SW-403, SW403): 9.76 µM
IC50 (Homo sapiens, SW-620, SW620): 1.35 µM
IC50 (Homo sapiens, T47D, T-47D): 0.225 µM
IC50 (Homo sapiens, T84, T84): 1.68 µM
IC50 (Homo sapiens, T98MG): 1.3 µM
IC50 (Homo sapiens, T-24, T24): 0.65 µM
IC50 (Homo sapiens, TCC-SUP, TCCSUP): 11.2 µM
IC50 (Homo sapiens, TF-1, TF-1): 0.138 µM
IC50 (Homo sapiens, THP-1, THP-1): 0.951 µM
IC50 (Homo sapiens, Toledo): 0.443 µM
IC50 (Homo sapiens, U138-MG, U138MG): > 29.3 µM
IC50 (Homo sapiens, U266B1): 0.652 µM
IC50 (Homo sapiens, U2932, U2932): 0.336 µM
IC50 (Homo sapiens, U-87 MG): 0.128 µM
IC50 (Homo sapiens, U-251, U251MG): 3.49 µM
IC50 (Homo sapiens, U-937, U937): 0.0486 µM
IC50 (Homo sapiens, U-2940, U2940): 2.35 µM
IC50 (Homo sapiens, UMC-11, UMC11): 10.7 µM
IC50 (Homo sapiens, UMUC3, UM-UC-3): 19.2 µM
IC50 (Homo sapiens, VCaP): > 29.3 µM
IC50 (Homo sapiens, VM-CUB-1, VM-CUB1): 1.58 µM
IC50 (Homo sapiens, WM 266-4, WM-266-4): 17.2 µM
IC50 (Homo sapiens, WSU-FSCCL): 0.268 µM
IC50 (Homo sapiens, WSU-NHL): 0.0757 µM
IC50 (Homo sapiens, WSUDLCL2, WSU-DLCL2): 0.651 µM
IC50 (Homo sapiens, WiDr): 0.438 µM
IC50 (Homo sapiens, YH13): > 29.3 µM
IC50 (Homo sapiens, YKG-1, YKG1): 0.255 µM
IC50 (Homo sapiens, Z-138, Z-138): 0.0136 µM
IC50 (Homo sapiens, ZR-75-1, ZR-75-1): 2.62 µM
IC50 (Homo sapiens, majority (147/276) of cell lines): < 1 µM
IC50 (J82): 20.9 µM
IC50 (JM1): 0.076 µM
IC50 (JVM-2): 0.172 µM
IC50 (JeKo-1): 6.19 µM
IC50 (LN-229): 1.15 µM
IC50 (MAVER-1): 0.133 µM
IC50 (MCF-7): 0.215 µM
IC50 (MDA-MB-231): 2.93 µM
IC50 (MINO): 0.536 µM
IC50 (NCI-H526-R): 0.219 µM
IC50 (NCI-H526): 0.138 µM
IC50 (PER-403): 0.029 µM
IC50 (PER-624): 0.526 µM
IC50 (PER-704): 0.375 µM
IC50 (Pfeiffer): 0.352 µM
IC50 (RCK8): 2.11 µM
IC50 (REC-1): 1.99 µM
IC50 (RIVA): 0.068 µM
IC50 (RL): 1.43 µM
IC50 (SF295): 9.84 µM
IC50 (SK-BR-3): 0.131 µM
IC50 (SU-DHL-4): 0.571 µM
IC50 (SU-DHL-5): 0.132 µM
IC50 (SU-DHL-6): 0.013 µM
IC50 (SU-DHL-8): 1.22 µM
IC50 (SU-DHL-10): 0.495 µM
IC50 (SU-DHL-16): 0.124 µM
IC50 (SW-780): 0.451 µM
IC50 (T24): 0.65 µM
IC50 (U251MG): 3.49 µM
IC50 (U937): 0.049 µM
IC50 (U2932): 0.336 µM
IC50 (U2940): 2.35 µM
IC50 (U-87MG): 0.127 µM
IC50 (UM-UC-3): 19.2 µM
IC50 (WSU-DLCL2): 0.651 µM
IC50 (Z-138): 0.014 µM
IC50 (ZR-75-1): 2.62 µM
